Laboratory results published in paper PMC9114170, “Investigation of the Role of Hydrophobic Amino Acids on the Structure-Activity Relationship in the Antimicrobial Venom Peptide Ponericin L1” (The Journal of membrane biology, 2021).
Ends that are not written are not given here.

Columns and labels:
[1] = test system: Escherichia coli D31 CGSC 5165; assay type: cell-based; settings: highest concentration tested 15 μM
Experimental: (§1) Six different strains of bacteria were streaked on LB-Miller agar plates from a frozen glycerol stock derived from the original samples shipped from CGSC (Coli Genetic Stock Center, Yale University) or ATCC (American Type Culture Collection) (Escherichia coli D31 CGSC 5165 ([Burman, Nordstrom & Boman, 1968]), Staphylococcus aureus ATCC 35556. Pseudomonas aeruginosa PA-01 ATCC 47085, Acinetobacter baumannii ATCC 19606). For each of the strains a liquid overnight culture was prepared using a single colony into fresh LB broth and placed in a shaking incubator for ~ 18 hours at 37 C at 225 rpm. After the incubation period, a 1:200 dilution was made in fresh LB broth and then used for experimentation. Minimal Inhibitory Concentration (MIC) determinations were performed using mid-log phase bacteria diluted to 5 x 10^5 CFU/mL. Next, 90 μL of this diluted culture was then pipetted into a sterile 96-well plate that contains serially diluted aliquots of the peptide variants to consist of a total volume of 100 μL. This plate was then incubated for 18 hours at 37 C. Bacterial growth was determined by taking an OD600 measurement using a Spectramax M5 multimode plate reader post incubation. Minimal Bactericidal Concentration (MBC) was performed by taking 1 μL of the culture from the MIC plate and then pipetting it on to a fresh LB agar plate. After plating this culture, the plate was then incubated overnight at 37 C. MBC was determined by the growth or the lack of growth from each well on the agar plate.
(§2) The ability of L1 and the hydrophobic variants to act as antimicrobials was investigated using the Minimal Inhibitory Concentration (MIC) and Minimal Bactericidal Concentration (MBC) assays as previously described ([Wiegand, Hilpert & Hancock, 2008]). The MIC is determined as the lowest concentration of peptide required to inhibit bacterial growth in solution, while the MBC is the lowest concentration required to act in a bactericidal mechanism (as opposed to bacteriostatic) and is determined by plating MIC cultures on antimicrobial-free media. Peptides were screened against E. coli, S. aureus, A. baumannii, P. aeruginosa, B. subtilis, and K. pneumoniae.

[2] = test system: B. subtilis; assay type: cell-based; settings: highest concentration tested 15 μM
Experimental: as §1, §2

[3] = test system: Acinetobacter baumannii ATCC 19606; assay type: cell-based; settings: highest concentration tested 15 μM
Experimental: as §1, §2

[4] = test system: Pseudomonas aeruginosa PA-01 ATCC 47085; assay type: cell-based; settings: highest concentration tested 15 μM
Experimental: as §1, §2

[5] = test system: Staphylococcus aureus ATCC 35556; assay type: cell-based; settings: highest concentration tested 15 μM
Experimental: as §1, §2

[6] = test system: K. pneumoniae; assay type: cell-based; settings: highest concentration tested 15 μM
Experimental: as §1, §2

[7] = Peptide binding to lipid vesicles by Trp emission barycenter shift; assay type: physicochemical; settings: anionic and zwitterionic SUVs titrated into 2 μM peptide in PBS; λex 280 nm, λem 300 to 400 nm
Experimental: To form small unilamellar vesicles (SUVs) sonication or ethanol dilution methods were implemented ([Caputo & London, 2019]). In all cases, lipid vesicle preparation was the same. Depending on the lipid composition, appropriate volumes of lipids in chloroform were mixed in a glass tube and then allowed to dry under N2 gas for 15 minutes. The lipid films were then placed in a vacuum desiccator and allowed to dry further under a vacuum for 1 hour. For vesicles formed through ethanol dilution methods, 10 μL of pure ethanol was added to the film, and then vortex until the dissipation of the film. While continuing to vortex, the appropriate amount of PBS was added. For vesicles formed using the method of sonication, PBS was added directly to the tube while being vortexed to create multilamellar vesicles (MLVs). […]
All fluorescence spectroscopy experiments were preformed using a JY-Horiba Fluoromax4 instrument. […]
Considering that the first step in the mechanism of action of many AMPs is the binding to the bacterial cell surface, binding to model lipid vesicles was performed. […] The impact of lipid composition on binding to model vesicles was investigated using a simple vesicle titration experiment in which Trp fluorescence was measured after addition of lipid vesicles. […]

[8] = 1 μL of MIC plate culture on LB agar, overnight at 37 C
[9] = LB broth, 5 x 10^5 CFU/mL, 18 hours at 37 C, OD600

Sequence: FFKEFWTKMKGAGKAFFGKFKGFF [L1F]
- MBC E. coli [1, 8]: >15 µM
- MIC E. coli [1, 9]: 0.94 µM
- MBC B. subtilis [2, 8]: 1.88 µM
- MIC B. subtilis [2, 9]: 1.88 µM
- MBC A. baumannii [3, 8]: 0.938 µM
- MIC A. baumannii [3, 9]: 0.47 µM
- MBC P. aeruginosa [4, 8]: >15 µM
- MIC P. aeruginosa [4, 9]: 7.5 µM
- MBC S. aureus [5, 8]: 1.88 µM
- MIC S. aureus [5, 9]: 0.94 µM
- MBC K. pneumoniae [6, 8]: 7.5 µM
- MIC K. pneumoniae [6, 9]: 1.88 µM
- Extent of spectral shift (Trp emission barycenter) on binding lipid vesicles [7]: ~ 14 nm
